In publication PMC8869333, “Alpha-Glucosidase and Alpha-Amylase Inhibitory Activities, Molecular Docking, and Antioxidant Capacities of Plectranthus ecklonii Constituents” (Antioxidants, 2022):

Tests used:
[1] = Oxygen radical absorbance capacity (ORAC) assay; conditions: Trolox equivalents; stock solution 1 mg/mL
Method: ORAC assay was conducted according to the previous method with slight modifications. The method measured the antioxidant scavenging capacity of thermal decomposition generated by peroxyl radical of 2,2-azobis (2-amino-propane) dihydrochloride (AAPH) as peroxyradical (ORACROO^.) generator. The loss of fluorescence of fluorescein (probe) was an indication of the extent of its oxidation through reaction with the peroxyl radical. The protective effect of an antioxidant was measured by assessing the fluorescence area under the curve (AUC) plot relative to that of blank in which no antioxidant was present. The analyzer was programmed to record the fluorescence of fluorescein every 2 min after AAPH was added. The fluorescein solution and sample were added in the wells of an illuminated 96-well plate, and 12 μL of each sample in a stock solution of 1 mg/mL was combined with 138 μL of a fluorescein working solution, followed by the addition of 50 μL of 150 mg of AAPH prepared in situ in 6 mL phosphate buffer. Absorbance was measured with a Fluoroskan spectrum plate reader with the excitation wavelength set as 485 nm and the emission wavelength at 530 nm. A calibration curve was used, using a Trolox stock solution of concentration in the range of 83–417 μM (R^2 = 0.9514). The ORAC values were calculated using a regression equation (Y = a + bX + Cx^2) between Trolox concentration (Y in μM) and the net area under the fluorescence decay curve (X). ORAC values are expressed as μMTE/mg of a test sample. Samples without perfect curve were further diluted, and the dilution factors were used for the calculation of such samples.

[2] = Ferric-ion reducing antioxidant power (FRAP) assay; conditions: ascorbic acid equivalents; stock solution 1 mg/mL
Method: The FRAP assay was carried out in accordance with the method described previously. In a 96-well plate, 10 μL of the stock solution (1 mg/mL w/v) of the isolated compounds (1–3) was mixed with 300 μL of FRAP reagent. The FRAP reagent was prepared by mixing (10:1:1, v/v/v) of acetate buffer (300 mM, pH 3.6), tripyridyl triazine (TPTZ) (10 mM in 40 mM HCl), and FeCl3.6H2O (20 mM). Incubation commenced at room temperature for 30 min, and the plate was read at a wavelength of 593 nm in a Multiskan spectrum plate reader (Thermo Fisher Scientific). L-Ascorbic (Sigma-Aldrich, Cape Town, South Africa) was used as a standard, with concentrations varying between 0 and 1000 μM. Further dilutions were carried out with the samples that were highly concentrated, and such dilution factors were recorded and used for calculations of the affected samples. The results are expressed as μM ascorbic acid equivalents per milligram dry weight (μM AAE/g) of the test samples.

[3] = Trolox equivalent absorbance capacity (TEAC) assay; conditions: Trolox equivalents; stock solution 1 mg/mL
Method: The TEAC assay was carried out in accordance with the method described previously. The stock solutions, which contained 7 mM of ABTS and 140 mM of K2S2O8, were prepared and kept at −2 °C. The working solution was then prepared by adding 88 μL of K2S2O8 solution to 5 mL of ABTS solution. The two solutions were mixed and allowed to react for 24 h at room temperature in the dark. Trolox was used as a standard, with concentrations ranging between 0 and 500 μM. After 24 h, the ABTS mix solution was diluted with ethanol to read a start-up absorbance (control) of approximately 2.0 (±0.1). The stock solution (1 mg/mL) of a methanol extract and purified compounds (25 μL) were allowed to react with 300 μL of ABTS in the dark at room temperature for 30 min. The absorbance was read at 734 nm at 25 °C in the plate reader. The results are expressed as μM Trolox equivalents per milligram dry weight (μM/TE/g) of the test samples.

alpha-glucosidase = target: T1, alpha-glucosidase (Saccharomyces cerevisiae, UniProt P53341); assay: Alpha-glucosidase inhibitory activity (pNPG substrate, absorbance 405 nm); assay type: biochemical
T1 construct: purchased Sigma-Aldrich
T1 sequence (P53341 whole entry): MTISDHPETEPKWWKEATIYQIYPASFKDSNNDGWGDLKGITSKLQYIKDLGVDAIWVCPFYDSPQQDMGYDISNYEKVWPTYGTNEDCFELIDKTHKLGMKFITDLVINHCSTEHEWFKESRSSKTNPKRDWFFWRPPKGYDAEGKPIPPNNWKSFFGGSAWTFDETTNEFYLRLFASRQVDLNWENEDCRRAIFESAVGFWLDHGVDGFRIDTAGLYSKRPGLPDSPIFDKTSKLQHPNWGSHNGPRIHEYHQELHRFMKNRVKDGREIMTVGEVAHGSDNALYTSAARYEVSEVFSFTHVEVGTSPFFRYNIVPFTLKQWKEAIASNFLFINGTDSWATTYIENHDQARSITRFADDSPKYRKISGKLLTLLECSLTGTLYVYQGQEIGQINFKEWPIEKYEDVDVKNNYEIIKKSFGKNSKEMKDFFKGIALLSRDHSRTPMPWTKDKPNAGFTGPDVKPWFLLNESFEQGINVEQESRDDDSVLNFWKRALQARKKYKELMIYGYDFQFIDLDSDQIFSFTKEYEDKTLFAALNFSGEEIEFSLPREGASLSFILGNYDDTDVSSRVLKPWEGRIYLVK
Method: The organic solvents used in this study were supplied by Merck, Cape Town, South Africa. The NMR spectra were carried out on an Avance 400 MHz spectrometer (Bruker, Rheinstetten, Germany) using deuterated chloroform. Preparative HPLC was utilized for the purification of compounds using HPLC-grade methanol and distilled water.
The reaction was stopped by adding 50 μL of sodium carbonate Na2CO3 (0.1 M). […] Each experiment was repeated three times.

[4] = cited from earlier work

| Molecule | ORAC [1] [µM TE/g] | FRAP [2] [µM AAE/g] | TEAC [3] [µM TE/g] | IC50 (alpha-glucosidase) [µM] | EC50 ([4]; read-out: DPPH radical scavenging EC50) [µM] | IC50 ([4]; read-out: DPPH radical scavenging IC50) [µM] |
| --- | --- | --- | --- | --- | --- | --- |
| O=C(O[C@@H]1Cc2c(O)cc(O)cc2O[C@@H]1c1cc(O)c(O)c(O)c1)c1cc(O)c(O)c(O)c1 [EGCG, epigallocatechin gallate, reference compound] | 3976.82 ± 3.8 | 7524.1 ± 4.9 | 4146.4 ± 19.8 | – | – | – |
| COc1cc(C(=O)OC2CC(C)(C)C3=CC=C4C=C(C(C)C)C(=O)C(O)=C4C3(C)C2)ccc1O (centres unmarked) [Compound 3, parvifloron G] | – | 1455.4 ± 2.0 | 3526.1 ± 0.6 | 88.9 | – | – |
| parvifloron F [Compound 2] | 1726.1 ± 2.6 | 1155.5 ± 2.3 | 1069.3 ± 2.4 | – | 131 | – |
| parvifloron D [Compound 1] | 3942.9 ± 7.1 | 1043.9 ± 2.6 | 470.3 ± 2.2 | – | – | 1300 ± 100 |
